# Where a name gives a salt, the structure may show the parent alone.
# Target: T1, VLA-4 (α4β1 integrin) binding to immobilized VCAM-1 (Homo sapiens, UniProt P05556+P13612)
# T1 construct: followed by 10 μl of Ramos cell-derived VLA-4; endogenous in cells; host or cells: Ramos cells (VLA-4 preparation derived from the cells)
# Assay: VLA-4/VCAM-1 Screening Assay (solid-phase, dual antibody ELISA)
# Details: not given
# Protocol: VLA-4 antagonist activity, defined as ability to compete for binding to immobilized VCAM-1 was quantitated using a solid-phase, dual antibody ELISA. VLA-4 (α4β1 integrin) bound to VCAM-1 was detected by a complex of anti-integrin β1 antibody: HRP-conjugated anti-mouse IgG: chromogenic substrate (K-Blue). Initially, this entailed coating 96 well plates (Nunc Maxisorp) with recombinant human VCAM-1 (0.4 μg in 100 μl PBS), sealing each plate and then allowing the plates to stand at 4° C for Å18 hr. […] On the day of assay, all plates were washed twice with VCAM Assay Buffer (200 μl/well of 50 mM Tris-HCl, 100 mM NaCl, 1 mM MnCl2, 0.05% Tween 20; pH 7.4). Test compounds were dissolved in 100% DMSO and then diluted 1:20 in VCAM Assay Buffer supplemented with 1 mg/mL BSA (i.e., final DMSO=5%). […] 100 μl per well of each dilution was added to the VCAM-coated plates, followed by 10 μl of Ramos cell-derived VLA-4. These plates were sequentially mixed on a platform shaker for 1 min, incubated for 2 hr at 37° C. and then washed four times with 200 μl/well VCAM Assay Buffer. 100 μl of mouse anti-human integrin β1 antibody was added to each well (0.6 μg/mL in VCAM Assay Buffer+1 mg/mL BSA) and allowed to incubate for 1 hr at 37° C. At the conclusion of this incubation period, all plates were washed four times with VCAM Assay Buffer (200 μl/well). A corresponding second antibody, HRP-conjugated goat anti-mouse IgG (100 μl per well @1:800 dilution in VCAM Assay Buffer+1 mg/mL BSA), was then added to each well, followed by a 1 hr incubation at room temperature and concluded by three washes (200 μl/well) with VCAM Assay Buffer. Color development was initiated by addition of 100 μl K-Blue per well (15 min incubation, room temp) and terminated by addition of 100 μl Red Stop Buffer per well. […] Results were calculated as % inhibition of total binding (i.e., VLA-4+VCAM-1 in the absence of test compound).
# T1 sequence (P13612 34-1032): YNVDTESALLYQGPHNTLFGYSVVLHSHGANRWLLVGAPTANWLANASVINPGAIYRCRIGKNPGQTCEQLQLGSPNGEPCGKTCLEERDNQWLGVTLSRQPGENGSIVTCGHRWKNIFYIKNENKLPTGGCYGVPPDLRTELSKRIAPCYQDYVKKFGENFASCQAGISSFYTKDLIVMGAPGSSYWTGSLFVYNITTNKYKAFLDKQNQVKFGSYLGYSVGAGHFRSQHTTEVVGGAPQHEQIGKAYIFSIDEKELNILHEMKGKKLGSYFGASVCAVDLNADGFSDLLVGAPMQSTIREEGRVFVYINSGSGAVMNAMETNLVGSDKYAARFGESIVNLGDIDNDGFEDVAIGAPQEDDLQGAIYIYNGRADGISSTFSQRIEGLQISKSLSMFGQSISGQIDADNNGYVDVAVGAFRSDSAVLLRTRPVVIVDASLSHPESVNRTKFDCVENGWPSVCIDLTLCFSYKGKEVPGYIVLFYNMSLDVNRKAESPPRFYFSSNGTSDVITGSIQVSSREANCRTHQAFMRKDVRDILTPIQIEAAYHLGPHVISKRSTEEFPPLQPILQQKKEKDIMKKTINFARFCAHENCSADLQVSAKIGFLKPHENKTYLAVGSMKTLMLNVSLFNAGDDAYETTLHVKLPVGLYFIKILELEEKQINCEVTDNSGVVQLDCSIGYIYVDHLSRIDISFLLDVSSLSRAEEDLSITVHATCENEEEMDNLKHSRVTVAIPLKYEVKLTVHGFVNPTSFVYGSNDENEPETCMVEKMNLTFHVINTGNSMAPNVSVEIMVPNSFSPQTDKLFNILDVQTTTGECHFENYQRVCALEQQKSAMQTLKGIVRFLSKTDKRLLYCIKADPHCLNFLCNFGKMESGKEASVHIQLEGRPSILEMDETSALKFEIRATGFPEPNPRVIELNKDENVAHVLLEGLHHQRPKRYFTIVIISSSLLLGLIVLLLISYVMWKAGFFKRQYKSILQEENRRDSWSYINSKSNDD
# T1 sequence (P05556 21-798): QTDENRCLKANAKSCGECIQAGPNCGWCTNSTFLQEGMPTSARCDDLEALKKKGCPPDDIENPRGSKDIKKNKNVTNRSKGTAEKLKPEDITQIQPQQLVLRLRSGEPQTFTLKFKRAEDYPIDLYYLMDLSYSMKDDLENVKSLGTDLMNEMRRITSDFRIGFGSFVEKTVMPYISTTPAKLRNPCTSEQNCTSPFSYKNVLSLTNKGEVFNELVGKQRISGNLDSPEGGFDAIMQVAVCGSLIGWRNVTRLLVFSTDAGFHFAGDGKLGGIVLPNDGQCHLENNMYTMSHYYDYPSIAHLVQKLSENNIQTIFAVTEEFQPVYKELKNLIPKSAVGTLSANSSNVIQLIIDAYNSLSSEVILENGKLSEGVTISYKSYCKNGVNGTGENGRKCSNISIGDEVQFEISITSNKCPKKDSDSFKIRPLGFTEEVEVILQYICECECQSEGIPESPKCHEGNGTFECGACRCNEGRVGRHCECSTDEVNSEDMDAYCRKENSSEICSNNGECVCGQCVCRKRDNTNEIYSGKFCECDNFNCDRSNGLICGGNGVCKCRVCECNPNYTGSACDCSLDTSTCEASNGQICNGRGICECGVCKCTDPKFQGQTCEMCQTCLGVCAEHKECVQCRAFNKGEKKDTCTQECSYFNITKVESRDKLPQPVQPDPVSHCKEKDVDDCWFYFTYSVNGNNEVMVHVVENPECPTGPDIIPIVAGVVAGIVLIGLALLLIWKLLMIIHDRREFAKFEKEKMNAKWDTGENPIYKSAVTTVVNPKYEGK
inhibition at 0.01 µM [%],inhibition at 0.1 µM [%],Molecule
72,92,O=C(Nc1ccc(C[C@H](NC(=O)C23CC4CC(CC(C4)C2)C3)C(=O)O)cc1)c1ccnc2ccccc12 [Example 65]
67,93,O=C(Nc1ccc(C[C@H](NC(=O)C2(c3ccccc3)CCCCC2)C(=O)O)cc1)c1ccnc2ccccc12 [Example 77]
53,89,O=C(Nc1ccc(C[C@H](NC(=O)C2(c3ccc(Cl)cc3)CCCC2)C(=O)O)cc1)c1ccnc2ccccc12 [Example 80]

Molecule,inhibition at 0.01 µM [%],inhibition at 0.1 µM [%]
O=C(Nc1ccc(C[C@H](NC(=O)C2(c3ccccc3)CCCC2)C(=O)O)cc1)c1ccnc2ccccc12 [Example 75],68,92

# Same assay, conditions: IC50 nM, Ramos cell-derived VLA-4, recombinant human VCAM-1 coated plates, 2 hr at 37° C.
row,Molecule,IC50 [nM]
1,COc1cccc(CC2(C(=O)N[C@@H](Cc3ccc(NC(=O)c4c(Cl)cccc4Cl)cc3)C(=O)O)CCCC2)c1 [Example 52],1.1
2,O=C(Nc1ccc(C[C@H](NC(=O)C2(Cc3ccccc3Cl)CCCC2)C(=O)O)cc1)c1c(Cl)cccc1Cl [Example 51],1.6

# Same assay, conditions: Ramos cell-derived VLA-4, recombinant human VCAM-1 coated plates, 2 hr at 37° C.; read-out: IC50
row,Molecule,IC50 [nM]
1,O=C(Nc1ccc(C[C@H](NC(=O)C2(c3ccccc3)CCCC2)C(=O)O)cc1)c1ccnc2ccccc12 [Example 75],3.8
2,"COc1ccc(CC2(C(=O)N[C@@H](Cc3ccc(NC(=O)c4ccnc5ccccc45)cc3)C(=O)O)CCCC2)cc1 [Example 40, N-[[1-[(4-Methoxyphenyl)methyl]cyclopentyl]carbonyl]-4-[(4-quinolinylcarbonyl)amino]-L-phenylalanine]",2.1
3,"COc1ccc(C2(C(=O)N[C@@H](Cc3ccc(NS(=O)(=O)c4c(C)cc(C)cc4C)cc3)C(=O)O)CCCCC2)cc1 [Example 114, N-[[1-(4-Methoxyphenyl)cyclohexyl]carbonyl]-4-[[(2,4,6-trimethylphenyl)sulfonyl]amino]-L-phenylalanine]",155
4,"COc1ccc(C2(C(=O)N[C@@H](Cc3ccc(N4C(=O)CSC4c4ccc5ccccc5c4)cc3)C(=O)O)CCCCC2)cc1 (stereo partly drawn) [Example 142, N-[[1-(4-methoxyphenyl)cyclohexyl]carbonyl]-4-[2-(2-naphthyl)-4-oxo-3-thiazolidinyl]-L-phenylalanine]",1.7
5,4-[[(4-Cyano-4-phenyl-1-piperidinyl)carbonyl]amino]-L-phenylalanine on Wang Resin [Example 116],0.88
6,"COCCC1(C(=O)NC(Cc2ccc(N3C(=O)C(CC(C)C)N(C(C)=O)C3c3ccc(OC)cc3)cc2)C(=O)O)CCCC1 (single isomer, unassigned) [Example 130]",6.6
7,CCCCC(C)(CC)C(=O)N[C@@H](Cc1ccc(NC(=O)c2c(Cl)cccc2Cl)cc1)C(=O)O (stereo partly drawn) [Example 88],3.9
8,"COc1ccc(CC2(C(=O)N[C@@H](Cc3ccc(N4C(=O)c5ccncc5C4=O)cc3)C(=O)O)CCCC2)cc1 [Example 109, 4-(2,3-Dihydro-1,3-dioxo-1H-pyrrolo[3,4-c]pyridin-2-yl)-N-[[1-[(4-methoxyphenyl)methyl]cyclopentyl]carbonyl]-L-phenylalanine]",62
9,"O=C(Nc1ccc(C[C@H](NC(=O)C2(Cc3ccccc3)CCCC2)C(=O)O)cc1)c1ccccc1[N+](=O)[O-] [Example 35, 4-[[(2-Nitrophenyl)carbonyl]amino]-N-[[1-(phenylmethyl)cyclopentyl]carbonyl]-L-phenylalanine]",5
10,CCCCC(C)(CC)C(=O)N[C@@H](Cc1ccc(NC(=O)c2ccc(F)cc2C(F)(F)F)cc1)C(=O)O (stereo partly drawn) [Example 89],81
11,"COc1ccc(C2(C(=O)N[C@@H](Cc3ccc(N4C(=O)[C@H](CC(C)C)N(C)C4=O)cc3)C(=O)O)CCCCC2)cc1 [Example 144, N-[[1-(4-methoxyphenyl)cyclohexyl]carbonyl]-4-[(4S)-3-methyl-4-(2-methylpropyl)-2,5-dioxo-1-imidazolidinyl]-L-phenylalanine]",0.75
12,"Cc1ccc([N+](=O)[O-])cc1C(=O)Nc1ccc(C[C@H](NC(=O)C2(Cc3ccccc3)CCCC2)C(=O)O)cc1 [Example 36, 4-[[(2-Methyl-5-nitrophenyl)carbonyl]amino]-N-[[1-(phenylmethyl)cyclopentyl]carbonyl]-L-phenylalanine]",4.6
13,"O=C(Nc1ccc(C[C@H](NC(=O)C2(c3ccccc3)CCCC2)C(=O)O)cc1)c1ccnc2ccccc12 [Example 27, N-[(1-Phenylcyclopentyl)carbonyl]-4-[(4-quinolinylcarbonyl)amino]-L-phenylalanine Sodium Salt]",2.7
14,COc1ccc(CC2(C(=O)N[C@@H](Cc3ccc(N4C(=O)c5ccccc5C4=O)cc3)C(=O)O)CCCC2)cc1 [Example 110],8.2
15,COc1ccc(CC2(C(=O)N[C@@H](Cc3ccc(NC(=O)c4cc([N+](=O)[O-])ccc4C)cc3)C(=O)O)CCCC2)cc1 [Example 97],0.5
16,"COc1ccc(CC2(C(=O)N[C@@H](Cc3ccc(NC(=O)c4ccccc4[N+](=O)[O-])cc3)C(=O)O)CCCC2)cc1 [Example 41, N-[[1-[(4-Methoxyphenyl)methyl]cyclopentyl]carbonyl]-4-[[(2-nitrophenyl)carbonyl]amino]-L-phenylalanine]",1.7

# Further lines, results first:
row,IC50 [nM],Molecule
1,0.83,COc1ccc(C2(C(=O)N[C@@H](Cc3ccc(NC(=O)c4cc([N+](=O)[O-])ccc4C)cc3)C(=O)O)CCCCC2)cc1 [Example 105]
2,0.44,Cn1nnnc1-c1cccc(CC2(C(=O)N[C@@H](Cc3ccc(NC(=O)c4c(Cl)cccc4Cl)cc3)C(=O)O)CCCC2)c1 [Example 48]
3,6.2,O=C(CC1CCCC1)NCCC1(C(=O)N[C@@H](Cc2ccc(NC(=O)c3c(Cl)cccc3Cl)cc2)C(=O)O)CCCC1 [Example 164]
4,2.1,CC1(C(=O)N[C@@H](Cc2ccc(NC(=O)CCN3CCCCC3)cc2)C(=O)O)CC1(Cl)Cl (stereo partly drawn) [Example 99]
5,22.7,"Cc1cc(C)c(S(=O)(=O)Nc2ccc(C[C@H](NC(=O)C34CC5CC(CC(C5)C3)C4)C(=O)O)cc2)c(C)c1 [Example 115, N-[(1-Adamantyl)carbonyl]-4-[[(2,4,6-trimethylphenyl)sulfonyl]amino]-L-phenylalanine]"
6,19,"COCCC1(C(=O)NC(Cc2ccc(N3C(=O)C(CC(C)C)N(C(C)=O)C3c3ccc(OC)cc3)cc2)C(=O)O)CCCC1 (single isomer, unassigned) [Example 137]"
7,66,CCOC(=O)c1ccccc1NC(=O)Nc1ccc(C[C@H](NC(=O)C2(C)CC2(Cl)Cl)C(=O)O)cc1 (stereo partly drawn) [Example 121]
8,2.4,O=C(Nc1ccc(C[C@H](NC(=O)C23CC4CC(CC(C4)C2)C3)C(=O)O)cc1)c1ccnc2ccccc12 [Example 65]
9,0.42,"COCCC1(C(=O)NC(Cc2ccc(N3C(=O)C(CC(C)C)N(C(C)=O)C3c3ccc(Cl)cc3)cc2)C(=O)O)CCCC1 (single isomer, unassigned) [Example 138]"
10,5.6,O=C(Nc1ccc(C[C@H](NC(=O)C2(c3ccccc3)CCCCC2)C(=O)O)cc1)c1ccnc2ccccc12 [Example 77]
11,11.7,COc1ccc(CC2(C(=O)N[C@@H](Cc3ccc(NC(=O)[C@H](Cc4ccc(O)cc4)NC(C)=O)cc3)C(=O)O)CCCC2)cc1 [Example 98]
12,38,"COCCC1(C(=O)NC(Cc2ccc(N3C(=O)C(CC(C)C)N(C(C)=O)C3c3ccc(Cl)cc3)cc2)C(=O)O)CCCC1 (single isomer, unassigned) [Example 139]"
13,6.4,O=C(Nc1ccc(C[C@H](NC(=O)C2(c3ccc(Cl)cc3)CCCC2)C(=O)O)cc1)c1ccnc2ccccc12 [Example 80]
14,6.8,CC(=O)N[C@@H](Cc1ccc(O)cc1)C(=O)Nc1ccc(C[C@H](NC(=O)C23CC4CC(CC(C4)C2)C3)C(=O)O)cc1 [Example 86]
15,11,O=C(NCCC1(C(=O)N[C@@H](Cc2ccc(NC(=O)c3c(Cl)cccc3Cl)cc2)C(=O)O)CCCC1)c1ccc2c(c1)OCO2 [Example 165]
16,9.4,CCCCC(CC)C(=O)NCCC1(C(=O)N[C@@H](Cc2ccc(NC(=O)c3c(Cl)cccc3Cl)cc2)C(=O)O)CCCC1 (stereo partly drawn) [Example 161]
17,0.7,COc1ccc(C2(C(=O)NC(Cc3ccc(NC(=O)c4c(Cl)cccc4Cl)cc3)C(=O)O)CCCCC2)cc1 (stereo not drawn) [Example 103]
18,3.9,"COc1ccc(C2(C(=O)N[C@@H](Cc3ccc(N4C(=O)CSC4c4ccc(O)cc4)cc3)C(=O)O)CCCCC2)cc1 (stereo partly drawn) [Example 141, 4-[2-(4-Hydroxyphenyl)-4-oxo-3-thiazolidinyl]-N-[[1-(4-methoxyphenyl)cyclohexyl]carbonyl]-L-phenylalanine]"
19,0.82,COc1ccc(CC2(C(=O)NC(Cc3ccc(NC(=O)c4c(Cl)cccc4Cl)cc3)C(=O)O)CCCC2)cc1OC (stereo not drawn) [Example 54]
20,4.4,O=C(Nc1ccc(CC(NC(=O)C23CC4CC(CC(C4)C2)C3)C(=O)O)cc1)c1ccc(F)cc1C(F)(F)F (stereo not drawn) [Example 84]
21,0.95,COc1ccc(C2(C(=O)NC(Cc3ccc(NC(=O)CCN4CCCCC4)cc3)C(=O)O)CCCCC2)cc1 (stereo not drawn) [Example 102]
22,5,"O=C(Nc1ccc(C[C@H](NC(=O)C2(Cc3ccccc3)CCCC2)C(=O)O)cc1)c1c(Cl)cccc1Cl [Example 37, 4-[[(2,6-Dichlorophenyl)carbonyl]amino]-N-[[1-(phenylmethyl)cyclopentyl]carbonyl]-L-phenylalanine]"

# — US6455550B1, “N-alkanoylphenylalanine derivatives” (Hoffmann-La Roche Inc., priority 1997, dated 2002)
